Assay results published in publication PMC8348017 (Molecules, 2021).

What was measured:
Assay type in all cases: biochemical
[1] = target: T1, hMAO-A (Homo sapiens, UniProt P21397); experiment: Amplex Red MAO fluorimetric assay, % inhibition at […]; details: read-out: hMAO-A % Inh 100 μM
T1 construct: gene MAOA; recombinant hMAO-A
T1 sequence (P21397 1-527): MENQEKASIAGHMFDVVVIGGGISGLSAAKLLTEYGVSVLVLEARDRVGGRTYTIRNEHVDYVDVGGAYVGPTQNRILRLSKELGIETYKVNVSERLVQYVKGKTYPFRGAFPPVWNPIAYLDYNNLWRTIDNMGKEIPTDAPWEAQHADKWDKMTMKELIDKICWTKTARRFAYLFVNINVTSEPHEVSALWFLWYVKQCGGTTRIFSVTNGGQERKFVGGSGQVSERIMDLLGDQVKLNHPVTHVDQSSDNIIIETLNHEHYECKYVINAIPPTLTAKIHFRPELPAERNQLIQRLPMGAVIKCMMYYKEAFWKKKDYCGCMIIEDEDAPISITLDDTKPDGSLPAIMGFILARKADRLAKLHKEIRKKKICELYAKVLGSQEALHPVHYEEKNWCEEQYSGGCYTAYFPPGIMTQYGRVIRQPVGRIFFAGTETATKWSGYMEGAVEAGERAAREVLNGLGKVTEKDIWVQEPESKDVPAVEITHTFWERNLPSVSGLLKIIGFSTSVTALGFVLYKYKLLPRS

[2] = target: T2, hBuChE (Homo sapiens, UniProt P06276); experiment: Ellman assay, % inhibition at […]; details: read-out: hBuChE % Inh 100 μM
T2 construct: gene BCHE; BuChE isolated from human serum

[3] = target: T3, hMAO-B (Homo sapiens, UniProt P27338); experiment: Amplex Red MAO fluorimetric assay, recombinant enzyme, p-tyramine substrate
T3 construct: gene MAOB; recombinant hMAO-B
T3 sequence (P27338 2-520): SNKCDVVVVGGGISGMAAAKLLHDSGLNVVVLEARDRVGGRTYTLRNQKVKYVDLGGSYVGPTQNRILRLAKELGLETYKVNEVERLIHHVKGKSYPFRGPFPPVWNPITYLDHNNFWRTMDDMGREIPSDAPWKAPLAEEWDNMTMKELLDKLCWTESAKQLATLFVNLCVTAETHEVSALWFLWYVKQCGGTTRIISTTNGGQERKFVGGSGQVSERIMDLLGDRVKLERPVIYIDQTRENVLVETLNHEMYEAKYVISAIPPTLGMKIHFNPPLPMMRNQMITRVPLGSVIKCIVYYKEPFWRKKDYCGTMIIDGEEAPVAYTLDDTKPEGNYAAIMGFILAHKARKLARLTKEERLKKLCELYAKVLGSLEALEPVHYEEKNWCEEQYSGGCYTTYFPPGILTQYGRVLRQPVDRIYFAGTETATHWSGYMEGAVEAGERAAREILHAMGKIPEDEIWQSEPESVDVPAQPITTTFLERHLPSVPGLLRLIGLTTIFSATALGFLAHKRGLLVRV

[4] = target: T3, hMAO-B; experiment: Amplex Red MAO fluorimetric assay, % inhibition at […]; details: read-out: hMAO-B % Inh 100 μM

T2 sequence (P06276 29-602): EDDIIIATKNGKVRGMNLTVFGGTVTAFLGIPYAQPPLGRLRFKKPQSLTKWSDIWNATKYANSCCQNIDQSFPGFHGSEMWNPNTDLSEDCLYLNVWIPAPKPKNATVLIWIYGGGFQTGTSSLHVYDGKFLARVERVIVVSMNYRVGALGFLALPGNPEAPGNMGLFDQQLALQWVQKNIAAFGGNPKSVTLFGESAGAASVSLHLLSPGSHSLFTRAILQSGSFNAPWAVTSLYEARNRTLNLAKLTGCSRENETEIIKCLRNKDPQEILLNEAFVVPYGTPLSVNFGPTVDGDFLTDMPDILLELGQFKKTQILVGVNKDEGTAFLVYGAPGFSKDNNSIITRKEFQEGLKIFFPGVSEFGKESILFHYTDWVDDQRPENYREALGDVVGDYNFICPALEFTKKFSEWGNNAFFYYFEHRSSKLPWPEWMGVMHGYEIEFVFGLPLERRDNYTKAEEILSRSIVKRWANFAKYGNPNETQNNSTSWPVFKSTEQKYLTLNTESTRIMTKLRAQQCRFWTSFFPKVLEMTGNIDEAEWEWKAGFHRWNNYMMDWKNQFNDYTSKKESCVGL

SMILES	inhibition at 100 µM [1] [%]	inhibition at 100 µM [2] [%]	IC50 [3] [µM]	inhibition at 100 µM [4] [%]
O=C(/C=C(O)/C=C/c1cc(O)c(O)cc1O)/C=C/c1cc2ccc(O)c(O)c2oc1=O [compound 12, 7,8-Dihydroxy-3-(7-(2′,4′,5′-trihydroxyphenyl)-3,5-dioxohepta-1,6-dien-1-yl)coumarin]	60.9 ± 4.09	–	–	–
O=C(/C=C(O)/C=C/c1cc(O)c(O)c(O)c1)/C=C/c1cc2ccc(O)c(O)c2oc1=O [compound 14, 7,8-Dihydroxy-3-(7-(3′,4′,5′-trihydroxyphenyl)-3,5-dioxohepta-1,6-dien-1-yl)coumarin]	54.3 ± 3.64	–	–	–
O=C(/C=C/c1c(O)cc(O)cc1O)CC(=O)/C=C/c1cc2cc(O)c(O)cc2oc1=O [compound 15, 6,7-Dihydroxy-3-(7-(2′,4′,6′-trihydroxyphenyl)-3,5-dioxohepta-1,6-dien-1-yl)coumarin]	–	50.9 ± 3.41	–	–
O=C(/C=C(O)/C=C/c1cc(O)c(O)cc1O)/C=C/c1cc2cc(O)c(O)cc2oc1=O [compound 16, 6,7-Dihydroxy-3-(7-(2′,4′,5′-trihydroxyphenyl)-3,5-dioxohepta-1,6-dien-1-yl)coumarin]	58.2 ± 3.9	–	26.2 ± 1.76	–
O=C(/C=C(O)/C=C/c1cc(O)c(O)c(O)c1)/C=C/c1cc2cc(O)c(O)cc2oc1=O [compound 18, 6,7-Dihydroxy-3-(7-(3′,4′,5′-trihydroxyphenyl)-3,5-dioxohepta-1,6-dien-1-yl)coumarin]	51.5 ± 3.45	–	–	55.7 ± 3.74
